Reference: patent publication US8933012B2, “Glycopeptide antibiotic derivative” (priority 2006, dated 2015)
≈ marks a conversion by molar mass, not a printed value.

Assays:
[1] = Single-dose intravenous toxicity screening test in mouse; format: in vivo; conditions: single intravenous dose 30 mg/kg, compared with corresponding compound having -COOH at the C-terminal
Protocol: The compounds of the invention were tested for water solubility and toxicity.

[2] = system: methicillin-resistant Staphylococcus aureus S. aureus SR3637 (H-MRSA); assay: In vitro antimicrobial activity, MIC by microdilution method; format: cell-based
Protocol: (§1) In Vitro Assay of Antimicrobial Activity
(§2) For several compounds of the invention, minimal inhibitory concentration (MIC) was determined by the microdilution method using cation adjusted Mueller-Hinton broth well known in the art.

[3] = system: vancomycin-resistant enterococcus E. faecalis SR7914 (VanA); assay: as above; format: cell-based
Protocol: as §1, §2

Compound	histological findings in kidney etc. [1]	MIC [2] [µg/mL]	MIC [3] [µg/mL]
CCNNC(=O)C1NC(=O)C2NC(=O)[C@H](NC(=O)[C@@H]3NC(=O)[C@H](CC(N)=O)NC(=O)C(NC(=O)[C@@H](CC(C)C)NC)[C@H](O)c4ccc(c(Cl)c4)Oc4cc3cc(c4OC3O[C@H](CO)[C@@H](O)[C@H](O)[C@H]3OC3C[C@](C)(NCc4cccc(NC(=O)c5ccc(OC(F)(F)F)cc5)c4)[C@H](O)[C@H](C)O3)Oc3ccc(cc3Cl)[C@H]2O)c2ccc(O)c(c2)-c2c(O)cc(O)cc21 (stereo partly drawn) [Example 2]	good histological findings	–	–
CN[C@H](CC(C)C)C(=O)NC1C(=O)N[C@@H](CC(N)=O)C(=O)N[C@H]2C(=O)N[C@H]3C(=O)NC(C(=O)NC(C(=O)NO)c4cc(O)cc(O)c4-c4cc3ccc4O)[C@H](O)c3ccc(c(Cl)c3)Oc3cc2cc(c3OC2O[C@H](CO)[C@@H](O)[C@H](O)[C@H]2OC2C[C@](C)(NCCC3CCN(C(=O)Nc4ccc(OC(F)(F)F)cc4)CC3)[C@H](O)[C@H](C)O2)Oc2ccc(cc2Cl)[C@H]1O (stereo partly drawn) [Example 4]	–	0.5 (≈ 0.281 µM)	4 (≈ 2.25 µM)
